Assays:
[1] = system: diamondback moth; assay: Lepidopteran efficacy: neonate diamondback moth via radish leaf dip; assay type: in vivo; details: Plutella xylostella, foliar, 48 h, broflanilide @ 0.01 ppm, 2 DAT, read-out: Mean % Mortality @ Days after Treatment 2 DAT
Excerpt: (§1) Synergism can be described as an interaction where the combined effect of two or more compounds is greater than the sum of the individual effects of each of the compounds.
(§2) When the observed combined control effect is greater than the expected combined control effect (E), then the combined effect is synergistic.
(§3) Large leaf lima bean (southern armyworm) and radish (diamondback moth) were dipped in treatment solution and allowed to dry. The leaves were excised and placed individually into square petri dishes containing two filter paper discs moistened with 0.5 ml of reverse osmosis water. One neonate insect per dish (total of 20 dishes per treatment, grouped into 5 dishes per replicate) were infested for the test with southern armyworm. Five insects per dish (total of 5 dishes per treatment) were infested for the test with diamondback moth. The studies were held in an environmental chamber 14 L: 10 D at 30° C. and 70% RH. The number of dead and moribund insects were recorded (moribund was considered dead). Rate rundowns were conducted initially to determine sublethal rates for the combination testing.
(§4) 5 replications with 5 insects are each conducted per treatment, insects are held singly.
(§5) Control mortality is less than 15% and standard treatments yielded 100% mortality.

[2] = system: southern armyworm; assay: Lepidopteran efficacy: neonate southern armyworm via lima bean leaf dip; assay type: in vivo; details: Spodoptera eridania, foliar, 96 h, broflanilide @ 0.0025 ppm, 4 DAT, read-out: Mean % Mortality @ Days after Treatment 4 DAT
Excerpt: as §1, §2, §3, §4, §5

`CN(C(=O)c1ccccc1)c1cccc(C(=O)Nc2c(Br)cc(C(F)(C(F)(F)F)C(F)(F)F)cc2C(F)(F)F)c1F` [broflanilide] gave a mortality at 0.01 ppm [1] of 44% and a mortality at 0.0025 ppm [2] of 23.5%.

Reference: patent publication US11882830B2, “Pesticidal mixture comprising a carboxamide compound and a biopesticide” (priority 2015, dated 2024)
